Reference: US9796755B2, “Methods of treating depression and other related diseases” (Northwestern University, priority 2009, dated 2017)
Like-named read-outs stand apart in the source and are kept apart here. Where a SMILES comes first, the peptide text is derived from it.

Columns and labels:
[1] = CSF concentration of GLYX-13 after IV administration (LC-MS/MS); assay type: in vivo; conditions: male, Sprague Dawley, rat, cerebrospinal fluid (CSF), rats, read-out: Cmax within the CSF compartment
Experimental: Male Sprague Dawley rats (250-300 g) received intravenous injections of GLYX-13 (3-10 mg/kg), briefly anesthetized with isoflurane, and cerebrospinal fluid (CSF) samples drawn and stored at −70° C. until analysis.
CSF samples were precipitated with internal standard Pro-Thr-Pro-Ser-NH2 (SEQ ID NO: 20) in 400 μl of acetonitrile. Supernatant extract was separated by HPLC (LC-20AD, Shimadzu, Japan) using a Synergi 4μ Hydro-RP 8A column (Phenomenex, USA) with mobile phase of 100 mM ammonium formate with 0.1% formic acid for 0 1 minute followed by acetonitrile with 0.1% formic acid and samples were analyzed by LC-MS/MS (API4000, Applied Biosystems, USA) in ESI positive ion mode and the GLYX-13 (199.1 and 216.1) and IS (202.3) daughter ions quantified by multiple reaction monitoring. The lower limit of quantitation for the assay was 26.3 nM GLYX-13.

[2] = test system: glycogen synthase kinase 3β (GSK-3β); assay: Total and phosphoserine-9 GSK-3β by ELISA in medial prefrontal cortex; assay type: in vivo, rat; conditions: 24 hrs after GLYX-13 3 mg/kg IV or ketamine 10 mg/kg IV
Description: Total and Phosphoserine-9 glycogen synthase kinase 3β (GSK-3β) were quantified by ELISA according to the manufacturer's instructions (catalog numbers ADI-900-144 and ADI-900-123A, Assay Designs, USA). Total and phosphoserine-845 GluR1 were quantified by Western blot.

rats [3] = assay: Porsolt test after microinjection into medial prefrontal cortex or motor cortex; assay type: in vivo, rat
Experimental: To determine whether GLYX-13 acts in an area of the brain that is clinically relevant for depression, GLYX-13 was administered to either the medial prefrontal cortex (MPFC), which is associated with mood and depression, or to the motor cortex (FIG. 4). Mean time spent immobile in the Porsolt test was determined for groups of 10 three-month old male Fisher Brown Norway FI (FBNFI) rats pretreated with a single injection of GLYX-13 (1, 10 ug/side) or a single saline vehicle injection (0.5 ul/1 min) bilaterally into the medial prefrontal cortex or motor cortex (dorsal control) in animals with surgically implanted chronic indwelling cannulae aimed at the MPFC. […] Animals received a single 15 min training swim session one day before dosing.
The Porsolt test adapted for use in rats was performed as above. Animals were placed in a 46 cm tall×20 cm in diameter clear plastic tube filled to 30 cm with tap water (23±1° C.) for 15 min on the first day (habituation) and […] on the subsequent test day.
Bilateral 22-gauge guide cannulae (Plastic Products, USA) were stereotaxically implanted into the infralimbic/prelimbic cortex (+2.7 mm anterior,±1.2 mm lateral, 3.1 mm. ventral to bregma; cannulae angled 12° away from the midline) or dorsal control primary secondary motor cortex. (+2.7 mm anterior,±1.2 mm lateral, 1.0 mm ventral to bregma; cannulae angled 12° away from the midline). Animals were allowed 1 week to recover from surgery before the start of testing. After the completion of behavioral testing, histology was conducted for cannulae tip location. For medial prefrontal cannulae, all tips were located within the infralimbic or prelimbic cortex 2.2-3.2 mm anterior to bregma. For motor cortex cannulae, all tips were located, within the primary or secondary motor cortex 2.2-3.2 mm anterior to bregma.

rats [4] = assay: Drug discrimination in rats trained to discriminate ketamine from saline
Experimental: Testing was conducted as described previously (Nicholson K L & Balster R L (2009) The discriminative stimulus effects of N-methyl-D-aspartate glycine-site ligands in NMDA antagonist-trained rats. Psychopharmacology (Berl) 203(2):441-451). Adult male Sprague Dawley rats were trained to discriminate ketamine (10 mg/kg IP) from saline. Animals were then tested following various doses of GLYX-13 administration (3-156 mg/kg SC) and the percent of ketamine lever responding and rates of responding were recorded.

## C[C@@H](O)[C@H](N)C(=O)N1CCC[C@H]1C(=O)N1CCC[C@H]1C(=O)N[C@H](C(N)=O)[C@@H](C)O [GLYX-13, L-threonyl-L-prolyl-L-prolyl-L-threonine amide] (H-TPPT-NH2)
[1]; 3 mg/kg IV
  Cmax: 60 nM
[1]; 10 mg/kg IV
  Cmax: 200 nM
[2]
  phosphoserine-9 GSK-3β/total GSK-3β ratio: reduced
Rats [3]; MPFC injection 1 μg/side, two weeks post dosing, independent group
  effect on floating time in the Porsolt test: Reduction in floating time was still apparent
Rats [3]; MPFC injections, 1 and 10 μg/side, 20 min post dosing
  effect on floating time in the Porsolt test: reduced floating time
Rats [3]; injected into MPFC, FBNF1 rats, 20 min post injection, Mean±SEM
  reduction in floating compared to saline control or GLYX-13 injected into motor cortex: 50±5%
Rats [4]; SC, 3-156 mg/kg
  suppression of operant responding (rates of responding): did not suppress operant responding at any dose
Rats [4]; SC, dose range 3-156 mg/kg
  ketamine-like discriminative stimulus effects (percentage ketamine-lever responding): did not show any ketamine-like discriminative stimulus effects
Rats [4]; drug discrimination highest dose vs Porsolt active dose 10 mg/kg SC, printed as 170:10
  therapeutic index: ≥ 17
Rats [4]; highest dose evaluated, 156 mg/kg SC
  effect in the drug discrimination assay: essentially without effect
